Measured values from publication PMC3646298 (Pharmaceutical research, 2012).
Where two headings read alike, the source gives them in different places.

How the values were obtained:
[1] = biological target: colchicine-binding site on tubulin (Sus scrofa, UniProt P02550+P02554); assay: Competitive mass spectrometry binding assay; parameters: species or system porcine; conditions: tubulin 1 mg/mL, competitor 0.2–200 μM
[2] = Paclitaxel-resistant PC-3/TxR tumor xenograft study; assay type: in vivo, nude mice; conditions: male, athymic nude, mouse, tumor, po, 30 mg/kg
PC-3/TxR tumors = assay: as above; assay type: in vivo, nude mice; conditions: for Body weight Start / Body weight End / TGI: PC-3/TxR xenograft
in vivo [3] = conditions: female, beagle, dog, plasma, po, 5 mg/kg
PC-3 = assay: Apoptosis; assay type: cell-based, human; conditions: PC-3, 0.8–600 nmol/L, 24 h
[4] = Pharmacokinetic study in rats; conditions: female, Sprague-Dawley, rat, plasma, po, 10 mg/kg
in vivo [5] = conditions: male (mice), female (rats, dogs), ICR (mouse), Sprague-Dawley (rat), beagle (dog), po
U87MG = assay: SRB cytotoxicity assay in U87MG glioma; assay type: cell-based, human; conditions: read-out: Cytotoxicity IC50, 96 h treatment, mean ± SD, N=3
in vitro = conditions: human, Caco-2
PC-3/TxR [6] = assay: Apoptosis; assay type: cell-based, human; conditions: 0.8–600 nmol/L, 24 h
PPC-1 [7] = assay: SRB cytotoxicity assay in PPC-1; assay type: cell-based; conditions: Homo sapiens, PPC-1, 96 h, read-out: Cytotoxicity IC50
[8] = cited from earlier work
PPC-1 [9] = conditions: read-out: Cytotoxicity IC50, ref Ahn et al., MCT 9:2959, 2010 ([33]); cited from earlier work
PC-3 tumors = assay: PC-3 tumor xenograft study; assay type: in vivo, nude mice; conditions: PC-3 xenograft, day 1 and 9, end point day 19
Du-145 = conditions: read-out: Cytotoxicity IC50, ref Ahn et al., MCT 9:2959, 2010 ([33]); cited from earlier work
PC-3/TxR [10] = assay: SRB cytotoxicity assay in paclitaxel-resistant PC-3/TxR; assay type: cell-based, human
LNCaP = conditions: read-out: Cytotoxicity IC50, ref Ahn et al., MCT 9:2959, 2010 ([33]); cited from earlier work
[11] = PO 10 mg/kg, b.i.d×5/w, end point day 26
[12] = IV 10 mg/kg, day 1 and 9, end point day 19
[13] = IV 20 mg/kg, day 1 and 9, end point day 19

## CC[C@]1(O)C[C@@H]2CN(CCc3c([nH]c4ccccc34)[C@@](C(=O)OC)(c3cc4c(cc3OC)N(C)[C@H]3[C@@](O)(C(=O)OC)[C@H](OC(C)=O)[C@]5(CC)C=CCN6CC[C@]43[C@@H]65)C2)C1 [Vinblastine]
[1]
  competition with colchicine for tubulin binding: did not inhibit colchicine binding to tubulin

## COc1cc(C(=O)c2csc(Nc3ccc4[nH]ccc4c3)n2)cc(OC)c1OC [IAT, (2-(1H-indol-5-ylamino)-thiazol-4-yl)(3,4,5-trimethoxyphenyl)methanone]
[2]
  Kp at 1 h: 0.43 ± 0.33
PC-3/TxR tumors; PO 10 mg/kg, b.i.d×5/w
  Body weight Start: 29 ± 2 g
PC-3/TxR tumors; [11]
  Body weight End: 26 ± 3 g
  TGI: 59%
PC-3/TxR tumors; PO 30 mg/kg, b.i.d×5/w
  Body weight Start: 29 ± 3 g
PC-3/TxR tumors; PO 30 mg/kg, b.i.d×5/w, end point day 26
  Body weight End: 30 ± 2 g
PC-3/TxR tumors; paclitaxel-resistant prostate cancer xenograft, treated orally at doses of 3–30 mg/kg
  Tumor growth inhibition: greater than 100%
In vivo [3]
  bioavailability: 36%
[1]
  competition with colchicine for tubulin binding: competed effectively with colchicine for tubulin binding
PC-3
  induction of cell apoptosis (DNA histone complex formation): equally potent in their ability to induce cell apoptosis
[4]
  bioavailability: 24%
In vivo [5]
  bioavailability: 24 to 36%
U87MG
  IC50: 22 ± 30 nM
In vitro
  Papp A→B: 99 ×10⁻⁶ cm/s
PC-3/TxR [6]
  induction of cell apoptosis (DNA histone complex formation): equally potent in their ability to induce cell apoptosis

## CC(=O)O[C@H]1C(=O)[C@@]2(C)[C@H]([C@H](OC(=O)c3ccccc3)[C@]3(O)C[C@H](OC(=O)[C@H](O)[C@@H](NC(=O)c4ccccc4)c4ccccc4)C(C)=C1C3(C)C)[C@]1(OC(C)=O)CO[C@@H]1C[C@@H]2O [Paclitaxel]
PPC-1 [7]
  IC50: 23 ± 0.8 nM

## COc1cc(C(=O)c2csc(-c3ccccc3)n2)cc(OC)c1OC [SMART-H, 4-(3,4,5-trimethoxybenzoyl)-2-phenyl-thiazole]
[8]
  neurotoxicity: did not find any signs of obvious neurotoxicity

## CC(=O)O[C@@]12CO[C@@H]1C[C@H](O)[C@@]1(C)C(=O)[C@H](O)C3=C(C)[C@@H](OC(=O)[C@H](O)[C@@H](NC(=O)OC(C)(C)C)c4ccccc4)C[C@@](O)([C@@H](OC(=O)c4ccccc4)[C@H]21)C3(C)C [Docetaxel]
PC-3/TxR tumors; [12]
  Body weight End: 25 ± 2 g
  TGI: 14%
PC-3/TxR tumors; [13]
  Body weight End: 25 ± 4 g
  TGI: 56%
PPC-1 [9]
  IC50: 2.7 ± 1 nM
PC-3 tumors; IV 10 mg/kg
  Body weight End: 24 ± 2 g
PC-3 tumors; IV 20 mg/kg
  Body weight End: 24 ± 3 g
PC-3
  induction of cell apoptosis (DNA histone complex formation): potently induced cell apoptosis
Du-145
  IC50: 5.2 ± 1 nM
PC-3/TxR [10]
  Resistance factor (IC50 in PC-3/TxR compared with PC-3): 15
PC-3/TxR [10]; Homo sapiens, PC3-TxR, 96 h, read-out: Cytotoxicity IC50
  IC50: 18 ± 0.7 nM
PC-3/TxR [6]
  induction of cell apoptosis (DNA histone complex formation): substantially weaker
LNCaP
  IC50: 4.7 ± 1.3 nM
